The text below walks through data of PMC5824918, “HMG-CoA reductase from Camphor Tulsi (Ocimum kilimandscharicum) regulated MVA dependent biosynthesis of diverse terpenoids in homologous and heterologous plant systems” (Scientific Reports, 2018).

Molecules are shown by their SMILES.

This test deals with T1, OkHMGR.
T1 construct: gene HMGR; cDNA from leaf
As to the kind of experiment: spectrophotometric NADPH oxidation at […] nm, Lineweaver-Burk plot. In kind it is biochemical, Ocimum kilimandscharicum. As to conditions: 7.5 mM DTT, 150 mM potassium phosphate pH 7.0, 30 °C.

For orientation: Km means the concentration of substrate that gives half-maximal velocity.

For the compound `CC(C)(COP(=O)(O)OP(=O)(O)OC[C@H]1O[C@@H](n2cnc3c(N)ncnc32)[C@H](O)[C@@H]1OP(=O)(O)O)[C@@H](O)C(=O)NCCC(=O)NCCSC(=O)C[C@@](C)(O)CC(=O)O` [HMG-CoA], the Km (co-substrate NADPH (3.0 mM in standard assay)) was 88 µM.

As for `NC(=O)C1=CN([C@@H]2O[C@H](COP(=O)(O)OP(=O)(O)OC[C@H]3O[C@@H](n4cnc5c(N)ncnc54)[C@H](OP(=O)(O)O)[C@@H]3O)[C@@H](O)[C@H]2O)C=CC1` [NADPH], the Km (co-substrate HMG-CoA (0.05 mM in standard assay)) came to 903 µM.
